Measurements as given in patent US20240108740A1, “THERAPEUTIC COMPOSITIONS INCLUDING SPN10 AND USES THEREOF” (Stealth BioTherapeutics Inc., priority 2022, published 2024).
Residues, ends and D or L forms follow the SMILES beside them.

Assays:
[1] = tested on: Caco-2 cells (human intestinal epithelial cells); format: in vitro ADME
Description: The cellular uptake of [^3H] SPN10(s) (with or without aromatic-cationic peptides) or [^3H] peptide conjugates will be studied using Caco-2 cells (human intestinal epithelial cells), and confirmed using SH-SY5Y (human neuroblastoma), HEK293 (human embryonic kidney) and CRFK (kidney epithelial) cells. Monolayers of cells will be cultured in 12-well plates (5×10^5 cells/well) coated with collagen for 3 days. On day 4, the cells will be washed twice with pre-warmed HBSS, and incubated with 0.2 mL of HBSS containing 250 nM [^3H] peptide conjugates; [^3H] aromatic-cationic peptides (an equivalent molar dose of aromatic-cationic peptide based on the concentration of the aromatic-cationic peptide administered in the peptide conjugate treatment group); [^3H] SPN10(s) (an equivalent molar dose of SPN10 based on the concentration of SPN10 administered in the peptide conjugate treatment group); or SPN10(s) in combination with aromatic-cationic peptides (e.g., an equivalent molar dose of SPN10 based on the concentration of SPN10 administered in the peptide conjugate treatment group and an equivalent molar dose of aromatic-cationic peptide based on the concentration of aromatic-cationic peptide administered in the peptide conjugate treatment group) at 37° C. or 4° C. for various times up to 1 hour. […] The cell lysates will then be transferred to scintillation vials and radioactivity will be counted. To distinguish between internalized radioactivity and surface-associated radioactivity, an acid-wash step will be included. […] Excitation will be performed at 340 nm by means of a UV laser, and emission will be measured at 520 nm. […]

[2] = tested on: Isolated guinea pig hearts; assay: Example 28: lipid peroxidation in hearts subjected to ischemia and reperfusion; conditions: brief intervals of ischemia and reperfusion; compared to untreated controls
From the text: Isolated guinea pig hearts will be perfused in a retrograde manner in a Langendorff apparatus and subjected to various intervals of ischemia-reperfusion. Hearts will be fixed immediately, embedded in paraffin, and sectioned. Immunohistochemical analysis of 4-hydroxy-2-nonenol (HNE)-modified proteins will be carried out using an anti-HNE antibody.

[3] = tested on: Sprague Dawley rats; assay: Renal ischemia/reperfusion, no-reflow zone in the kidney; format: in vivo, rat

N=C(N)NCCC[C@H](NC(=O)[C@@H](N)Cc1c[nH]c2ccccc12)C(=O)N[C@@H](Cc1c[nH]c2ccccc12)C(=O)N[C@@H](CCCCN)C(N)=O [SPN10, H-L-Trp-L-Arg-L-Trp-L-Lys-NH2] (H-WRWK-NH2)
rate of uptake at 4° C. compared to 37° C. [1]: slower
saturation of uptake by 45 minutes [1]: 76.5%
saturation of uptake by 1 hour [1]: 86.3%
lipid peroxidation (HNE-modified proteins) [2]: prevent lipid peroxidation
anatomic zone of no-reflow in the kidney ([3]; 30 minutes before ischemia and before reperfusion): prevent or reduce
one or more of BUN, serum creatinine, and glomerular filtration rate ([3]; versus untreated control subjects): improve
